This is an account of results in patent publication US20060252798A1, “Metal ion chelators and therapeutic use thereof” (priority 2003, published 2006).

One test deals with active caspase-3. The test is described as follows: Protein level of active caspase-3 in M109 cells (western blotting). The format is cell-based, mouse. As to conditions: 1 μM. Here is the method: FIG. 14. Effect of Dp44mT (1 μM) on the (A,B) protein levels of active caspase-3, -8 and -9, and (C,D) the activity of caspase-3, -8 and -9 in cultured M109 cells in the absence (C) and presence (D) of cell-permeable caspase inhibitors. (A) Caspase-3, -8, and -9 levels after Dp44mT treatment at indicated times as detected by western blotting (upper panel). The anti-β-actin antibody was used to ensure equal protein loading (lower panel). (B) Densitometric analysis of the expression of caspase-3, -8, and -9 as a function of time normalized to β-actin (C) Caspase activity induced by Dp44mT (1 μM) at 0-48 h was expressed as a percentage of the 0 h time value. (D) Cell-permeable inhibitors of caspase-3, -8 or -9 at 1 μM prevented activation of these enzymes when incubated with Dp44mT (1 μM) for 48 h. Results are mean±SEM of three separate experiments.
Rabbit anti-active caspase-3 antibody, rabbit anti-active caspase-8 antibody and Annexin V fluorescein isothiocyanate (FITC) were from BD PharMingen (San Diego, Calif., USA). Anti-h-cytc MoAb was from R&D Systems Minneapolis, Minn., USA). Rabbit anti-active caspase-9 antibody, mouse anti-Bcl-2 and mouse anti-Bax antibodies were obtained from Santa Cruz (Santa Cruz, Calif., USA). Mouse anti-mouse β-actin antibody, horseradish peroxidase-conjugated antirabbit, and anti-mouse IgG were from Sigma Chemical Co. (St. Louis, Mo., USA).
To determine the role of caspase activation in Dp44mT-induced apoptosis in M109 cells, protein levels of active caspase-3, -8 and -9 (FIG. 14A,B) and their enzymatic activity (FIG. 14C,D) were examined.

Test [1] deals with holo-cytochrome c (h-cytc). The test is described as follows: Release of holo-cytochrome c from mitochondria into cytosol of M109 cells. As to conditions: 1 μM, 2 h exposure (FIG. 15A). The format is cell-based, mouse. The procedure: Due to the importance of h-cytc release from the mitochondrion on apoptosis induction,^8 further studies investigated the effect of Dp44mT on this process (FIG. 15A). Preparation of cytosolic and mitochondrial fractions and western blotting were carried out using standard techniques.^27 There was very little h-cytc expression in the cytosolic fractions of control M109 cells (i.e., at 0 h), with the greatest amount of h-cytc being found in the mitochondrion at this time (FIG. 15A). […] The release of h-cytc into the cytosol plateaued after a 4 h incubation with Dp44mT and then decreased to that found in control cells after 24 and 48 h. This increase in cytosolic h-cytc correlated with the loss from the mitochondrion (FIG. 15A). The near complete disappearance of h-cytc from the cytosol at 24 and 48 h may be due to its release from cells or its degradation^28 (FIG. 15A).

Regarding `CN(C)C(=S)NN=C(c1ccccn1)c1ccccn1` [Dp44mT, di-2-pyridylketone 4,4-dimethyl-3-thiosemicarbazone], the caspase-3 protein level was 168 % of the control in the test with active caspase-3 (2 h); 400 % of the control in the test on active caspase-3 (6 h); 380 % of the control in the test on active caspase-3 (12 h); “about 4 fold that of control cells” with active caspase-3 (24 h); 5.5 fold that of control cells with active caspase-3 (48 h). Also, in test [1], the “h-cytc release from the mitochondrion” value is listed as “h-cytc was found in the cytosolic fraction”.
